The IC50 is the concentration that gives 50% inhibition. A lower IC50 goes with greater potency in that assay.

The values below come from BindingDB's records for doi:10.1016/j.bioorg.2014.05.003 (Comsats Institute of Information Technology, 2014).

The target of this experiment is Alpha-glucosidase MAL12 (Saccharomyces cerevisiae (strain ATCC 204508 / S288c), UniProt P53341). Description: Glucosidase assay. The following applies: pH 6.8; 37 °C. Here is the method: Reaction mixture (100 µL) contained 70 µL 50 mM Na2HPO4 buffer, pH 6.8, 10 µL test compound (0.5 mM), followed by the addition of 10 µL enzyme (0.0234 units). The mixture was pre-incubated for 10 min at 37 °C and pre-read at 400 nm. The reaction was initiated by the addition of 10 µL of 0.5 mM substrate (p-nitrophenyl glucopyranoside) and incubated at 37 °C for 30 min. The absorbance of p-nitrophenol was measured at 400 nm.
Sequence of Alpha-glucosidase MAL12 (P53341 whole entry): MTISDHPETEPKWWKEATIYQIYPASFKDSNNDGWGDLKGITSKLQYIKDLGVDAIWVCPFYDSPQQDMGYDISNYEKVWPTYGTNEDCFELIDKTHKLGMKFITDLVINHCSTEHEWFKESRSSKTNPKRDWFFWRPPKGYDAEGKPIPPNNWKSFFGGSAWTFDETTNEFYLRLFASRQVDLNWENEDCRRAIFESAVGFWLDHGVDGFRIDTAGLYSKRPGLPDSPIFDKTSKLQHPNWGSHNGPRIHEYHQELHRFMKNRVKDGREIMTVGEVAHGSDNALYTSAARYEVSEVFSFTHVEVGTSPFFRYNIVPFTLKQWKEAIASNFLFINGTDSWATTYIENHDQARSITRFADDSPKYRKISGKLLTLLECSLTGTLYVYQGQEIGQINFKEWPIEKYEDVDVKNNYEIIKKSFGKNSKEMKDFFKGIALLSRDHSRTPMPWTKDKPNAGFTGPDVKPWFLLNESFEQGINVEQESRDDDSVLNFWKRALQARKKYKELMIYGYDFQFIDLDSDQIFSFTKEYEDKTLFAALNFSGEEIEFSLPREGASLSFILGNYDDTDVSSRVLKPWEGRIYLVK
Regarding `CCOC(=O)C1C(C)=NC(=O)NC1c1ccc(Cl)cc1` (stereo unspecified) [Ethyl 4-(4-chlorophenyl)-6-methyl-2-oxo-1,2,3,4-tetrahydropyrimidine-5-carboxylate (4b)], the IC50 was found to be 213 µM.

Molecule `CCOC(=O)C1C(C)=NC(=S)NC1c1ccc(C)cc1` (stereo unspecified) [Ethyl 6-methyl-4-(4-methylphenyl)-2-thioxo-1,2,3,4-tetrahydropyrimidine-5-carboxylate (4l)] came in with an IC50 of 125 µM.

For `CCOC(=O)C1C(C)=NC(=O)NC1c1ccc(C)cc1` (stereo unspecified) [Ethyl 6-methyl-4-(4-methylphenyl)-2-oxo-1,2,3,4-tetrahydropyrimidine-5-carboxylate (4f)], the half-inhibitory concentration (IC50) was determined as 112 µM.

The molecule `CCOC(=O)[C@H]1[C@@H]2NC(=O)NC1(C)Oc1ccccc12` [(+-)2,6-Methano-4-oxo-3,4,5,6-tetrahydro-2H-[1,3,5]benzoxadiazocines (4d)] displayed an IC50 of 122 µM.

In turn, `CCOC(=O)C1C(C)=NC(=O)NC1c1ccccc1` (stereo unspecified) [Ethyl 6-methyl-2-oxo-4-phenyl-1,2,3,4-tetrahydropyrimidine-5-carboxylate (4a)] displayed a 50% inhibitory concentration (IC50) of 143 µM.

`CCOC(=O)C1C(C)=NC(=O)NC1c1ccc(O)c(OC)c1` (stereo unspecified) [Ethyl 4-(4-hydroxy-3-methoxyphenyl)-6-methyl-2-oxo-1,2,3,4-tetrahydropyrimidine-5-carboxylate (4e)] displayed an IC50 of 305 µM.
